In ChEMBL document CHEMBL1201862, “PubChem BioAssay data set” (2004):
Activity calls are given as the source filed them.

Key:
[1] = target: Fructose-bisphosphate aldolase (Mycobacterium tuberculosis, UniProt P9WQA3); assay: Fluorescence-based biochemical high throughput dose response assay for inhibitors of the fructose-bisphosphate aldolase (FBA) of M. tuberculosis.; format: functional
[2] = NIH-3T3 fibroblast cytotoxicity, dose response, cytotoxicity control, cell-based, fluorescence, Alamar Blue, secondary assay (AID 2327); format: functional;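 also: NIH-3T3 mouse fibroblasts cultured with fluconazole at 8 µg/mL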
[3] = C. albicans growth with fluconazole, confirmation, fluorescence, retest (AID 2467); format: functional, cell-based
[4] = inhibitors of intracellular T. cruzi replication, confirmation, NIH3T3 host cells, beta-gal luminescence (AID 2044); format: functional, cell-based;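 also: intracellular parasites grown in NIH/3T3 mouse fibroblasts as host cells; luminescent beta-galactosidase reporter signal from transgenic T. cruzi replicating inside host cells; inhibitors lower the luminescence signal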
[5] = cytotoxicity toward NIH3T3 fibroblasts, dose response, counter-screen, cell-based, ATP luminescence, mouse fibroblasts (AID 2010); format: functional;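 also: cells exposed to compound for about 90 hours before reading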
Cytochrome P450 2C19 = Cytochrome P450 2C19 (Homo sapiens, UniProt P33261); assay: Cytochrome panel assay with activity outcomes. Panel member name: p450-cyp2c19 Compounds with AC50 equal or less than 10 uM are considered active; format: functional
[6] = inhibitors of HIV Env-driven cell fusion, dose response, cherry-pick (AID 652057); format: functional, cell-based
[7] = CEM21 lymphoblast cell cytotoxicity, dose response, cytotoxicity control for viral fusion inhibitor project, CellTiter-Glo luminescence, cherry-picked (AID 652042); format: functional, cell-based;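 also: potency for signal decrease meaning cytotoxicity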
[8] = ZM109 Env clade C HIV-1 fusion inhibitors, dose response, HeLa effector, CEM target cells, luciferase, cherry-pick (AID 652058); format: functional, cell-based
[9] = off-target signal loss in HeLa-CEM21 co-culture – HeLa F-luc CTL cells, cherry-picked, counter-screen for HIV-1 Env fusion inhibitor project, dose response (AID 652040); format: functional, cell-based;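 also: potency for signal decrease marking cytotoxic or nonspecific inhibition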
[10] = inhibitors of clade B AD8 Env fusion, dose response, cell-based, cherry-pick (AID 652062); format: functional;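 also: luciferase signal from cell-cell fusion driven by HIV-1 clade B AD8 Env; potency is for inhibitors of fusion seen as a drop in luminescence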
[11] = target: T1, Heat shock factor protein 1 (Mus musculus, UniProt P38532); assay: inhibition of MG132-induced HSE-luciferase signal, confirmation, cell-based, NIH3T3, luminescence, dose retest (AID 2382); format: functional;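 also: NIH3T3 fibroblasts with HSF1-driven luciferase reporter stressed by proteasome inhibitor MG132; luminescence from HSF1-driven luciferase expression after 8 hours of MG132 stress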
T1 sequence (P38532 whole entry): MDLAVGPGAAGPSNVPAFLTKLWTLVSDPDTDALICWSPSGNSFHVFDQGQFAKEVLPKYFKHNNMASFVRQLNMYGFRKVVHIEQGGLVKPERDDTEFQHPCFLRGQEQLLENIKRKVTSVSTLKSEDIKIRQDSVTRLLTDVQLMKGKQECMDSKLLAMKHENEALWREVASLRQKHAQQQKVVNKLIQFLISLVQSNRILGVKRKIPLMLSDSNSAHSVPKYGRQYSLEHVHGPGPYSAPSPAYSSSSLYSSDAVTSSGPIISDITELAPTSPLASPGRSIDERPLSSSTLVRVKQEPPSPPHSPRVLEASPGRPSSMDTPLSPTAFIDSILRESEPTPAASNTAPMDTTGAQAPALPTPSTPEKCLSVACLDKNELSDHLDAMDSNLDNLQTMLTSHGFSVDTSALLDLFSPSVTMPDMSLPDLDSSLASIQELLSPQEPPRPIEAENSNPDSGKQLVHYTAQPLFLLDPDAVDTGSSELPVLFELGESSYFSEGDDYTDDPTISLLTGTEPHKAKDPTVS

[12] = target: T2, Sentrin-specific protease 8 (Homo sapiens, UniProt Q96LD8); format: functional
T2 sequence (Q96LD8 whole entry): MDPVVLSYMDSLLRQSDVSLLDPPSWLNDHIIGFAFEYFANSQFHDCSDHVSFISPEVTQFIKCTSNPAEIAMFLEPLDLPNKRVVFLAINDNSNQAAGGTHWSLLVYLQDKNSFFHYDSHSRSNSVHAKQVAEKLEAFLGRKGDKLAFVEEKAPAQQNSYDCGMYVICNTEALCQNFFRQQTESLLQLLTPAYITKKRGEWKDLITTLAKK

[13] = target: T2, Sentrin-specific protease 8; format: functional; remark: listed apart in the source
Caspase-6 = target: T3, Caspase-6 (Homo sapiens, UniProt P55212); assay: human caspase-6 inhibitors, dose response, biochemical, VEID-R110 fluorescence, cherry-pick (AID 720632)
T3 sequence (P55212 whole entry): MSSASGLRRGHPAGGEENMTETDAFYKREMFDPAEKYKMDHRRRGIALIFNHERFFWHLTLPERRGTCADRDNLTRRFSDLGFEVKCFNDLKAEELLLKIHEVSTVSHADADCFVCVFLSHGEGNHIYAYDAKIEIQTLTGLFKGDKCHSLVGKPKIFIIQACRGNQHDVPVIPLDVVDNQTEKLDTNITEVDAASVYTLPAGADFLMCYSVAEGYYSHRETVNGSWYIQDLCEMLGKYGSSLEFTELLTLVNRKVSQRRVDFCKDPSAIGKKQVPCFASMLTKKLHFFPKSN

Beta-galactosidase = Beta-galactosidase (Escherichia coli, UniProt Q8VNN2); assay: Dose response counterscreen for EBI2 assay utilizing the enzyme, b-galactosidase.; format: functional
[14] = AlphaScreen signal interference compounds, dose response, artefact control for ARNT-TACC3 interaction inhibitor project, biochemical, luminescence, cherry-pick (AID 651705); format: functional;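 also: AlphaScreen bead proximity signal that flags compounds interfering with the detection technology; potency reflects signal decrease which marks the compound as an assay artifact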
[15] = target: Tyrosine-protein phosphatase non-receptor type 11 (Homo sapiens, UniProt Q06124); assay: SHP2 phosphatase inhibition, dose response, selectivity assay for STEP inhibitor project, biochemical (AID 602367); format: functional; settings: read-out: IC50_Mean
[16] = target: Tyrosine-protein phosphatase non-receptor type 5 (Homo sapiens, UniProt P54829); assay: STEP phosphatase inhibitors, confirmation, biochemical, fluorescence intensity, uHTS hits (AID 602372); format: functional; settings: read-out: IC50_Mean
[17] = target: Dual specificity protein phosphatase 3 (Homo sapiens, UniProt P51452); assay: VHR phosphatase inhibition, dose response, selectivity assay for STEP inhibitor project, biochemical (AID 602374); format: functional; settings: read-out: IC50_Mean
[18] = target: T4, Beta-2 adrenergic receptor (Homo sapiens, UniProt P07550); assay: Dose response for HTS for Beta-2AR agonists via FAP method from Powderset1.; format: functional
[19] = target: T4, Beta-2 adrenergic receptor; assay: beta2AR agonists driving receptor internalization, dose response, cell-based, FAP fluorogen, flow cytometry, cherry pick 1 (AID 588763); format: functional
[20] = target: Arf-GAP with SH3 domain, ANK repeat and PH domain-containing protein 1 (Homo sapiens, UniProt Q9ULH1); format: functional;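 also: biochemical fluorescence polarization dose–response screen measuring inhibition of ASAP1; ASAP1 GAP domain stimulating GTP hydrolysis by truncated human ARF1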
Sequence of Arf-GAP with SH3 domain, ANK repeat and PH domain-containing protein 1 (Q9ULH1 whole entry, the tested form may be a part): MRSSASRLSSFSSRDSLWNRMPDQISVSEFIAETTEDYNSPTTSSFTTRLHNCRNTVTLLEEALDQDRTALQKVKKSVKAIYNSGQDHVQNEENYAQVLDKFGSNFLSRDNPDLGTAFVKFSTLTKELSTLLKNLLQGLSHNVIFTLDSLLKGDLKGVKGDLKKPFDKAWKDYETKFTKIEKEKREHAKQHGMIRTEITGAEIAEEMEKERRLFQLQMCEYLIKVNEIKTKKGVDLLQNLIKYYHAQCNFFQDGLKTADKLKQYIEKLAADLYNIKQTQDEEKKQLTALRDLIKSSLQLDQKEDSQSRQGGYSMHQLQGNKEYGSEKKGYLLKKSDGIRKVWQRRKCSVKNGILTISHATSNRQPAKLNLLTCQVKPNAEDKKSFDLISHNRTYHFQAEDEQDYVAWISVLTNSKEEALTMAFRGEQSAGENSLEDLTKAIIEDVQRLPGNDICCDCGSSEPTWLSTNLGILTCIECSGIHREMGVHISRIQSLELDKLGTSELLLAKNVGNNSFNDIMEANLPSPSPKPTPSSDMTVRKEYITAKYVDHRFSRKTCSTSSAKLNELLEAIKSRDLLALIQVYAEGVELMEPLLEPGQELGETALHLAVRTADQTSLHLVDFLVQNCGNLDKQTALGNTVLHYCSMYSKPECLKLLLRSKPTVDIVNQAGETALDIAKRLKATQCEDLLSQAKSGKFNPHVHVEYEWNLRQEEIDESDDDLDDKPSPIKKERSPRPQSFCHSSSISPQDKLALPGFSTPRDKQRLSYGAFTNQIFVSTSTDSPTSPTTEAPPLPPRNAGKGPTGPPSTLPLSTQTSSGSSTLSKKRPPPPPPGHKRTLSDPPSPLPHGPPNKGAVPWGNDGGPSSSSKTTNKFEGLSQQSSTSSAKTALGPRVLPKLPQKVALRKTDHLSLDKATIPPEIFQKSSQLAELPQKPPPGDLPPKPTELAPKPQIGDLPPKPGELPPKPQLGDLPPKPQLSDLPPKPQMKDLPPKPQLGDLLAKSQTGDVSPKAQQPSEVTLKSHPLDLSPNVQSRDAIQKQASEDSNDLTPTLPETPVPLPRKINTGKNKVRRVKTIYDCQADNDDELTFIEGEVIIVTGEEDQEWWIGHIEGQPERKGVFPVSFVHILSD

T4 sequence (P07550 whole entry): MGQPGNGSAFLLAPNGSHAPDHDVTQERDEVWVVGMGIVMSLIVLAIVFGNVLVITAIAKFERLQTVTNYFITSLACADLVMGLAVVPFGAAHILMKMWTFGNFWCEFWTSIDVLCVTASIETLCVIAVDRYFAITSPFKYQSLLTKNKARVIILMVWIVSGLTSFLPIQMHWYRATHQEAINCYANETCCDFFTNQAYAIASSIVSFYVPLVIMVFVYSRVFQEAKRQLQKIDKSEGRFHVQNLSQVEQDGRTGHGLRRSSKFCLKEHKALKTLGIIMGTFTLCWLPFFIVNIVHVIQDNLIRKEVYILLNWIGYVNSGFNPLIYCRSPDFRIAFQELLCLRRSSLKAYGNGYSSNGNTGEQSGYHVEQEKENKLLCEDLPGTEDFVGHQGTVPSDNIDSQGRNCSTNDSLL
Sequence of Fructose-bisphosphate aldolase (P9WQA3 whole entry): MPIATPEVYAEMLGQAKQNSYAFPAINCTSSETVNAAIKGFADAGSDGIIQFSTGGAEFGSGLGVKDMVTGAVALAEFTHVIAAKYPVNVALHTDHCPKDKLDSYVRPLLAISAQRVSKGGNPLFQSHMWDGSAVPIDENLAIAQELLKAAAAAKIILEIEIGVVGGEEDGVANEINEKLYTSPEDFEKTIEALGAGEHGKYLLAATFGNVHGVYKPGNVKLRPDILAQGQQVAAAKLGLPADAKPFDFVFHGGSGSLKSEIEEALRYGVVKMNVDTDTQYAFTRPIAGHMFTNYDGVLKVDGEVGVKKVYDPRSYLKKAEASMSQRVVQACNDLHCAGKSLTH
Sequence of Beta-galactosidase (Q8VNN2 whole entry): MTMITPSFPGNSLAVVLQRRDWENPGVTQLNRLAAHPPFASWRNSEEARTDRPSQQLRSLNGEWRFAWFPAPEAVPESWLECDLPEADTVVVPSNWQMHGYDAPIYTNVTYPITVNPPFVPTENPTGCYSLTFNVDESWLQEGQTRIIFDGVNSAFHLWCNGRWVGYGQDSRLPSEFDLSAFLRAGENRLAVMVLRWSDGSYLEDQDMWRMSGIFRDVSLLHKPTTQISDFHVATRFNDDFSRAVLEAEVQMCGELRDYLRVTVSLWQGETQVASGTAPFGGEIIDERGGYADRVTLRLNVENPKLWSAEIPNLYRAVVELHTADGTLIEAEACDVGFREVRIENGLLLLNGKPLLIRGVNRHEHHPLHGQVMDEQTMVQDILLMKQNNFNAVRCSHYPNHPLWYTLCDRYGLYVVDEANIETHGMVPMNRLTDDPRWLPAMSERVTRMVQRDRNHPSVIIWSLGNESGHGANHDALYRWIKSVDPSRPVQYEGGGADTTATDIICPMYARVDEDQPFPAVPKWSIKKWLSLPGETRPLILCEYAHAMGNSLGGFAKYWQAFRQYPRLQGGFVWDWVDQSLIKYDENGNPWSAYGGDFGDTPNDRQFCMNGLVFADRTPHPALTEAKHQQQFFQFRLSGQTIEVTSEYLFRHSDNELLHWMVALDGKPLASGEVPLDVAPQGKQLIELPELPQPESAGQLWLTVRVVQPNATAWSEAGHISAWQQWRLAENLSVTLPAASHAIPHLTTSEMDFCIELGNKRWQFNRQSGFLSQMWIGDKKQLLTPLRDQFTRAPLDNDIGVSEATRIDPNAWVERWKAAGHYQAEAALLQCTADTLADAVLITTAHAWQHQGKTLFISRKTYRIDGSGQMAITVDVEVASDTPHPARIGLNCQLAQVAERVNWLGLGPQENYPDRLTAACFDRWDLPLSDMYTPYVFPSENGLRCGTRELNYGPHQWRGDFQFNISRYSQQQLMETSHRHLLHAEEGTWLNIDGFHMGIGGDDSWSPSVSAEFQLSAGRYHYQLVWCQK
Sequence of Tyrosine-protein phosphatase non-receptor type 11 (Q06124 whole entry): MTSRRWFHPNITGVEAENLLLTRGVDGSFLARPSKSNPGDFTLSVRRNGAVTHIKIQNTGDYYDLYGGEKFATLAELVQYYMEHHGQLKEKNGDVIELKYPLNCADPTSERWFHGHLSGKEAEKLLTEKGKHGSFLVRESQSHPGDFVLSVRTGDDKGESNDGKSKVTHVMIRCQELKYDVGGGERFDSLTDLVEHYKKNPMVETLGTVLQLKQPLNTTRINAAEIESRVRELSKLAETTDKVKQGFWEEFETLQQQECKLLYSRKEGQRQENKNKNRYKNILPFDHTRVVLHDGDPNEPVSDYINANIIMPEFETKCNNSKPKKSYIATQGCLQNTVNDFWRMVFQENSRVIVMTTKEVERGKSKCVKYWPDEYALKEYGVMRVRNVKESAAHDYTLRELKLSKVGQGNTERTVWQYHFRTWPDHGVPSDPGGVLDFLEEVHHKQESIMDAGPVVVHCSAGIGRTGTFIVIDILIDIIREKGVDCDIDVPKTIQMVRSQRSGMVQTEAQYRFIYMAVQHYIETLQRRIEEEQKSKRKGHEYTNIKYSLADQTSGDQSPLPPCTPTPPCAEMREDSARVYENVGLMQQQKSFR
Sequence of Tyrosine-protein phosphatase non-receptor type 5 (P54829 whole entry): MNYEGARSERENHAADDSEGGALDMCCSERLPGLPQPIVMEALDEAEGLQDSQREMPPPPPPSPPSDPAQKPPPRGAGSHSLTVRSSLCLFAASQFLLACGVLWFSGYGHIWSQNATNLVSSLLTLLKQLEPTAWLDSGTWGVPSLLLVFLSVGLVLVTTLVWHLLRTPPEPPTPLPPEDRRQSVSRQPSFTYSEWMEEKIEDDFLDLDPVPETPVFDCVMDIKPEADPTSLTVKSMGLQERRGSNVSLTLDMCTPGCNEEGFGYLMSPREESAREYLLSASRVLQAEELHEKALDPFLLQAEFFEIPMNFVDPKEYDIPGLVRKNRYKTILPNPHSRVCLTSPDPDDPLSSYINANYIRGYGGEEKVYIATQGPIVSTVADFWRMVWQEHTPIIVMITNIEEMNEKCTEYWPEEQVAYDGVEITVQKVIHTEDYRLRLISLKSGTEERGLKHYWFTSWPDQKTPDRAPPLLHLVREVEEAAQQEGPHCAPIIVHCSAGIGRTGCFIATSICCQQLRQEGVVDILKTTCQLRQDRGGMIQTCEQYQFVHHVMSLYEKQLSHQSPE
Sequence of Cytochrome P450 2C19 (P33261 whole entry, the tested form may be a part): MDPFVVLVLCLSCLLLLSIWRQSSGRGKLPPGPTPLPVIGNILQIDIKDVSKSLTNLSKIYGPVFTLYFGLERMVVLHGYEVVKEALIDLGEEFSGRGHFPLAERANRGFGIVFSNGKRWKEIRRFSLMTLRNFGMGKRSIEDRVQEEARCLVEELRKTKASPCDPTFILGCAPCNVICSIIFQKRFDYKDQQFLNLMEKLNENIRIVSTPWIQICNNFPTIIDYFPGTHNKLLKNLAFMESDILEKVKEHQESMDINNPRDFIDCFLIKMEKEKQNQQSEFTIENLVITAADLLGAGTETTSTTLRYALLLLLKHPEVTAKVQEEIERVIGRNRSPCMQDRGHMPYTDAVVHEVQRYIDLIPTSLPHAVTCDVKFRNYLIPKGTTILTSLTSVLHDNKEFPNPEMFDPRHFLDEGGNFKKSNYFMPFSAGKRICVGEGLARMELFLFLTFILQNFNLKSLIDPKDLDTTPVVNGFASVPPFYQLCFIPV
Sequence of Dual specificity protein phosphatase 3 (P51452 whole entry): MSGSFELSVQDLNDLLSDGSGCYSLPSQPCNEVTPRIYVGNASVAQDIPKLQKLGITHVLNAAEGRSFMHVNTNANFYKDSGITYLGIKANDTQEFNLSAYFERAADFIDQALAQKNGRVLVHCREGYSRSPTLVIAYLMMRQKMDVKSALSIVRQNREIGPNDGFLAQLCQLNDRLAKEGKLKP

COCCCNC(=S)NCCCNc1nc2cc3c(cc2cc1C#N)OCO3
IC50 [1]: 1.2 µM (active)

CC[n+]1c(C=CN(C)c2ccccc2)sc2ccc(Cl)cc21.[O-][Cl+3]([O-])([O-])[O-]
EC50 [2]: > 150 µM (inactive) | EC50 [3]: 3.29 µM (active) | EC50 [4]: < 0.1 µM (active) | EC50 [5]: 5.94 µM (active) | AC50 (Cytochrome P450 2C19): inconclusive | AC50 [6]: 26.3 µM (active) | AC50 [7]: 59.3 µM (active) | AC50 [8]: 39.8 µM (active) | AC50 [9]: 13 µM (active) | AC50 [10]: 8.92 µM (active) | EC50 (cells): 0.146 µM (active)

O=C1Cc2ccccc2C(=O)N1c1cccc(Cl)c1
EC50 [11]: > 195 µM (not active) | IC50 [12]: > 100 µM (inactive) | IC50 [13]: 6.08 µM (active) | AC50 (Caspase-6): 35.6 µM (active)

CCc1ccc2oc(C(=O)N3CCN(c4ccc(OC)cc4)CC3)cc(=O)c2c1
IC50 (Beta-galactosidase): > 80 µM (inactive)

O=C(CSc1ccc(-c2ccccn2)nn1)c1ccc([N+](=O)[O-])cc1
AC50 [14]: 131 µM (active)

COc1ccc(NC(=S)N(CCCN2CCC(C)CC2)Cc2cccs2)cc1Cl
IC50 [15]: 6.76 µM (active) | IC50 [16]: 55.6 µM (inactive) | IC50 [17]: 4.18 µM (active)

CCOC(=O)N1CCN(C(=O)CN(C)S(=O)(=O)c2ccc(Cl)cc2)CC1
EC50 [18]: 0.987 µM (active) | EC50 [19]: 1.95 µM (active)

COc1cccc(-n2nnc3c(=O)n(Cc4ccc(Br)cc4)cnc32)c1
IC50 [20]: 24.7 µM (inactive)

Cc1ccc(SCC(=O)Nc2ccc(-c3nc4ccccc4[nH]3)cc2)cc1
EC50 [18]: 0.00682 µM (active) | EC50 [19]: 0.0116 µM (active)
